Assay results: patent US6656927B1, “Ip3 receptor ligands” (Daiichi Pharmaceutical., Ltd., priority 1999, dated 2003)

How the values were obtained:
[1] = biological target: T1, IP3 binding domain (IBD, amino acid residues 1-885) of human IP3 receptor type 1 (Homo sapiens, UniProt Q14643); assay: Surface plasmon resonance competitive binding assay on Compound 1-immobilized sensor tip; details: for Kd: SPR competitive assay, Compound 2b re-assayed at IBD 1.76 nM; for Kd / binding of IBD to a Compound 1-immobilized tip: IBD 52.8 nM; for binding of IBD to a Compound 1-immobilized tip: competitive assay, FIG. 1B; for affinity relative to that of IP3: ratio of affinity to IBD versus IP3 (Table 1); for non-specific binding to the IP3 receptor in the competitive assay: IBD 1.76 nM, FIG. 1C
T1 construct: glutathione S-transferase (GST), joined by linker Leu-Val-Pro-Arg-Gly-Ser (N); His tag, joined by linker Leu-Val-Pro-Arg-Gly-Ser (C); made in house; host or cells: Escherichia coli BL-21 (DE3), vector pGEX2T
Source text: (1) Expression and Purification of Human IP3 Receptor Type 1
The IP3 binding domain (IBD, amino acid residues 1-885, Mignery, G. A., et al., EMBO J., 9, 3893, 1990) of human IP3 receptor type 1 (Yamada, N., et al., Biochem. J., 302, 781, 1994) was subcloned in pGEX2T (Amersham Pharmacia) for expression in bacteria. The N-terminus of IBD was fused to glutathione S-transferase using a linker sequence Leu-Val-Pro-Arg-Gly-Ser, whilst the C-terminus of IBD was labeled at His using a linker sequence Leu-Val-Pro-Arg-Gly-Ser. The protein was expressed in Escherichia coli BL-21 (DE3), and a recombinant protein was purified by using a resin on which Ni-NTA was immobilized (Amersham Pharmacia) and a HiTrap NHS-activated affinity column (Amersham Pharmacia) to which Compound 1 was bound. The purity of protein was calculated as 22% based on the result from SDS-PAGE.
(2) Measurement of Surface Plasmon Resonance
Surface plasmon resonance (SPR) was measured by using BIAcore 2000 (Amersham Pharmacia). After activation with NHS and EDC, 10 mM of Compound 1 in 100 mM borate buffer (pH 8.5) was bound to the surface of CM5 sensor tip, and inactivated with ethanolamine. In order to determine dissociation constants of IP3, Compound 1, Compound 2a, and Compound 2b, IBD purified beforehand was dissolved in a mobile phase buffer (10 mM HEPES, 150 mM NaCl, 3.4 mM EDTA and 0.005% Tween20, pH 7.4) together with each of the compounds. After each sample was injected, the tip surface was regenerated with 100 mM NaOH.
IBD bound to the tip in a concentration-dependent manner, however, non-specific binding with BSA (or glutathione S-transferase) was not observed. […] In order to determine affinity of IP3, Compound 1, Compound 2a and Compound 2b to IBD, a competitive assay was performed as follows. IBD (52.8 nM) was mixed with each of the aforementioned compounds at various concentrations. When the mixture was introduced onto the tip, a compound that competed with Compound 1 was […] (FIG. 1B). SPR obtained from this assay was applied to the equation to calculate dissociation constant (Kd) of each compound.
(3) Calculation of Dissociation Constants
For calculation of Kd of each compound, the resulting data plotted in FIGS. 1B and 1C were applied to the formula: 100[1−[X+Y+Kd−{X^2+2X (Kd−Y)+(Kd+Y)^2}^½]/2Y] wherein X and Y are a concentration of each compound and IBD concentration, respectively. […] Therefore, the IBD concentration was lowered to 1.76 nM, and the competitive assay for Compound 2b was performed again (FIG. 1C). The binding assay was carried out under a light condition and under a dark condition to verify that the binding was not affected by light.

[2] = test system: IP3 receptor; assay: Denaturation of the IP3 receptor by light irradiation: IP3-induced Ca2+ releasing activity in smooth muscle tissue specimen; details: guinea pig portal vein smooth muscle, 1 μM compound, 1 μM IP3, FIG. 2C
Procedure: (1) Preparation of a Tissue Specimen
A strip of smooth muscle tissue prepared from a portal vein of male guinea pigs (weight 200-300 g) was fixed on a stainless steel wire to prepare a tissue specimen.
(2) Measurement of Ca^2+ Releasing Activity
The above specimen was incubated at 35° C. for 3.5 hours in a 40 μM solution of mag-fura-2 AM (Molecular Probes) as a Ca^2+ fluorescent indicator to have the mag-fura-2 AM taken up by the specimen. Subsequently, the specimen was incubated at 35° C. for 1.5 to 2 hours in a 40-60 μM solution of β-escin as a surfactant to remove the mag-fura-2 AM present other than in intracellular organelles.
The specimen was inserted into a glass capillary, and then initial change of fluorescence intensity ratio (fluorescence intensity at Ex. 340 nm, Em.480 nm/fluorescence intensity at Ex. 375 nm, Em. 480 nm, i.e., releasing rate), at addition of various solutions to the specimen, was fitted to an exponential curve to obtain a value as Ca^2+ releasing activity. As the fluorescence photometer, CAF-110 (JASCO) was used. […]
The tissue specimen prepared in the above (1) was added with 1 μM IP3, and its Ca^2+ releasing activity was measured (before irradiation). This specimen was removed from a fluorescence photometer after the measurement, and the inside of a capillary was filled with 1 μM solution of Compound 2b. […]

T1 sequence (Q14643 1-885 isoform Q14643-4): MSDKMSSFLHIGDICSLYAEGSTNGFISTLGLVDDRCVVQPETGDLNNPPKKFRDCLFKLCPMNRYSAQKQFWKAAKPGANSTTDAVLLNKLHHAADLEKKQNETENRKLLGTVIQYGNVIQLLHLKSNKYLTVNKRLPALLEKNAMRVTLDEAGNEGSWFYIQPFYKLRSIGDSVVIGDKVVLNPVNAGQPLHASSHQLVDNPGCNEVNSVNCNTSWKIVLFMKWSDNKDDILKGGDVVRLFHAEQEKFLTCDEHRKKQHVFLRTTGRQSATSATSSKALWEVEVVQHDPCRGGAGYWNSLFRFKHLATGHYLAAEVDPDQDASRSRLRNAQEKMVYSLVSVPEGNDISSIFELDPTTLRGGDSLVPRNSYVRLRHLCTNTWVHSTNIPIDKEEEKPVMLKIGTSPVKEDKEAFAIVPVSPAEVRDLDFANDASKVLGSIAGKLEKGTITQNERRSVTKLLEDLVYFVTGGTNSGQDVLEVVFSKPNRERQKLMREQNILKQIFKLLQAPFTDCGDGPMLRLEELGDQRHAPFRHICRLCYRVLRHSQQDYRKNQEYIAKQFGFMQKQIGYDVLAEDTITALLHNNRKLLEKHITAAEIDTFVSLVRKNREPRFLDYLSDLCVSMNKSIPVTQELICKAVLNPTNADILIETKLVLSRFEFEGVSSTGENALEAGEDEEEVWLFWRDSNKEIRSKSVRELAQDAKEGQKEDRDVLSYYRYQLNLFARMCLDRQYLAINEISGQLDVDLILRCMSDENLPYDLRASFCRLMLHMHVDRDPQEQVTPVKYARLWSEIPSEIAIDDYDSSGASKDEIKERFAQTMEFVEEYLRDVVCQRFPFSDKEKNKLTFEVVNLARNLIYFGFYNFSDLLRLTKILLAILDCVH

Compound	Kd [1]	binding of IBD to a Compound 1-immobilized tip [1]	affinity relative to that of IP3 [1]	Ca2+ releasing activity induced by IP3, addition of compound only (no laser irradiation) [2]	Ca2+ releasing activity induced by IP3, addition of compound and laser irradiation ([2]; 635 nm laser 3 minutes)	non-specific binding to the IP3 receptor in the competitive assay [1]
NCCCOP(=O)(O)O[C@@H]1[C@H](O)[C@H](O)[C@@H](OP(=O)(O)O)[C@H](OP(=O)(O)O)[C@H]1O [Compound 1]	1100 nM	inhibited	about ⅙			
CN(C)c1ccc(C(=C2C=CC(=[N+](C)C)C=C2)c2ccc(C(=O)NCCCOP(=O)(O)O[C@@H]3[C@H](O)[C@H](O)[C@@H](OP(=O)(O)O)[C@H](OP(=O)(O)O)[C@H]3O)cc2)cc1 [Compound 2b]	1.17 nM	inhibited	167 fold	not reduced	remarkably reduced	specifically bound to the IP3 receptor
O=P(O)(O)O[C@@H]1[C@H](O)[C@H](O)[C@@H](OP(=O)(O)O)[C@H](OP(=O)(O)O)[C@H]1O [IP3, D-Myo-inositol-1,4,5-trisphosphate]	195 nM	inhibited				
carboxymalachite green						non-specific binding was not observed
